Measured values from PubChem BioAssay (NCI).
Values joined by “and” are separate entries in the source; they are usually repeats but may differ in a detail not shown here. Equal values may be shown once.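 48-hour exposure; five concentrations; linearly interpolated endpoints. GI50 = concentration required for 50% inhibition of growth. TGI is the concentration that stops growth completely.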

How the values were obtained:
Test in all cases: NCI tumour cell line growth inhibition, 48 h
[1] = system: 786-0 renal
[2] = system: HCT-116 colon
[3] = system: HL-60(TB) leukemia
[4] = system: K-562 leukemia
[5] = system: KM12 colon
[6] = system: LOX IMVI melanoma
[7] = system: MALME-3M melanoma
[8] = system: SN12C renal
[9] = system: T-47D breast
[10] = system: U251 CNS

COc1ccc(-n2c3c(c4c(CN5CCOCC5)c(O)ccc42)CCc2ccccc2C3=O)cc1
GI50 [1]: 75.8 µM
TGI [1]: > 100 µM
GI50 [2]: > 100 µM
TGI [2]: > 100 µM
GI50 [3]: 22.3 µM
TGI [3]: > 100 µM
GI50 [4]: 17.8 µM
TGI [4]: > 100 µM
GI50 [5]: > 100 µM
TGI [5]: > 100 µM
GI50 [6]: 67.3 µM
TGI [6]: > 100 µM
GI50 [7]: > 100 µM
TGI [7]: > 100 µM
GI50 [8]: 43.3 µM
TGI [8]: > 100 µM
GI50 [9]: > 100 µM
TGI [9]: > 100 µM
GI50 [10]: 85.7 µM
TGI [10]: > 100 µM

C=CC(=O)N[C@H]1CCOC[C@H]1Nc1ncc2cc(-c3c(Cl)c(OC)cc(OC)c3Cl)ccc2n1
GI50 [1]: 17.5 µM
TGI [1]: > 100 µM
GI50 [2]: 12.7 µM
TGI [2]: 57.2 µM
GI50 [3]: 12 µM
TGI [3]: 64.5 µM
GI50 [4]: 13.9 µM
TGI [4]: > 100 µM
GI50 [5]: 27.1 µM
TGI [5]: > 100 µM
GI50 [6]: 14.9 µM
TGI [6]: 48.9 µM
GI50 [7]: 13.1 µM
TGI [7]: 64 µM
GI50 [8]: 16.2 µM
TGI [8]: > 100 µM
GI50 [9]: 7.51 µM
TGI [9]: 85.5 µM
GI50 [10]: 26.5 µM
TGI [10]: > 100 µM

C=CCC1(O)c2cccc(NCCO)c2C(=O)c2c(NCCO)cccc21
GI50 [1]: > 100 µM
TGI [1]: > 100 µM
GI50 [2]: > 100 µM
TGI [2]: > 100 µM
GI50 [3]: > 100 µM
TGI [3]: > 100 µM
GI50 [4]: > 100 µM
TGI [4]: > 100 µM
GI50 [5]: > 100 µM
TGI [5]: > 100 µM
GI50 [6]: > 100 µM
TGI [6]: > 100 µM
GI50 [7]: > 100 µM
TGI [7]: > 100 µM
GI50 [8]: > 100 µM
TGI [8]: > 100 µM
GI50 [9]: > 100 µM
TGI [9]: > 100 µM
GI50 [10]: > 100 µM
TGI [10]: > 100 µM

COc1cc(/C=C2\CCC(CN(C)C)C2=O)ccc1OC(=O)c1ccccc1 (stereo not given)
TGI [1]: 12.4 µM
TGI [2]: 22.1 µM
TGI [3]: 8.71 µM
TGI [4]: 9.04 µM
TGI [5]: 13.7 µM
TGI [6]: 13 µM
TGI [7]: 29.5 µM
TGI [8]: 25.1 µM
TGI [9]: 7.9 µM
TGI [10]: 29.8 µM

Cn1cc(-c2cnc3ccc4ccc(CS(=O)(=O)NCc5ccccn5)cc4c(=O)c3c2)cn1
GI50 [1]: 27 µM
TGI [1]: > 100 µM
GI50 [2]: 16.3 µM
TGI [2]: 54.1 µM
GI50 [3]: 9.15 µM
TGI [3]: 41.8 µM
GI50 [4]: 4.78 µM
TGI [4]: > 100 µM
GI50 [5]: 10.5 µM
TGI [5]: 52 µM
GI50 [6]: 13.5 µM
TGI [6]: 35.3 µM
GI50 [7]: 21.3 µM
TGI [7]: 73.1 µM
GI50 [8]: 19 µM
TGI [8]: > 93.3 µM
GI50 [9]: 16.4 µM
TGI [9]: > 93 µM
GI50 [10]: 21.6 µM
TGI [10]: > 100 µM

NS(=O)(=O)c1cccc(N=Cc2c(O)[nH]c3ccccc23)c1
GI50 [1]: > 25 µM
TGI [1]: > 25 µM
GI50 [2]: > 25 µM
TGI [2]: > 25 µM
GI50 [3]: > 25 µM
TGI [3]: > 25 µM
GI50 [4]: > 25 µM
TGI [4]: > 25 µM
GI50 [5]: 8.04 µM
TGI [5]: > 25 µM
GI50 [6]: > 25 µM
TGI [6]: > 25 µM
GI50 [7]: > 25 µM
TGI [7]: > 25 µM
GI50 [8]: > 25 µM
TGI [8]: > 25 µM
GI50 [9]: > 25 µM
TGI [9]: > 25 µM
GI50 [10]: > 25 µM
TGI [10]: > 25 µM

c1ccc(-n2nnnc2-c2cccc3ccccc23)cc1
GI50 [1]: 2.01 µM
TGI [1]: 53.2 µM
GI50 [2]: 0.401 µM
TGI [2]: 24.5 µM
GI50 [3]: 0.365 µM
TGI [3]: 1.7 µM
GI50 [4]: 0.377 µM
TGI [4]: > 100 µM
GI50 [5]: 0.396 µM
TGI [5]: 22.8 µM
GI50 [6]: 0.498 µM
TGI [6]: 24.8 µM
GI50 [7]: 0.635 µM
TGI [7]: > 100 µM
GI50 [8]: 1.33 µM
TGI [8]: > 100 µM
GI50 [9]: 0.461 µM
TGI [9]: > 100 µM
GI50 [10]: 0.536 µM
TGI [10]: > 48.1 µM

N#CC1=C(N)NC(=O)NC12Nc1ccccc1S2 (stereo not given)
GI50 [1]: 19.4 µM
TGI [1]: 49.6 µM
GI50 [2]: 18.5 µM
TGI [2]: 44 µM
GI50 [3]: 34.5 µM
TGI [3]: > 100 µM
GI50 [4]: 31.8 µM
TGI [4]: > 93 µM
GI50 [5]: 26.5 µM
TGI [5]: > 68.4 µM
GI50 [6]: 22.9 µM
TGI [6]: > 59.2 µM
GI50 [7]: 4.63 µM
TGI [7]: 42.5 µM
GI50 [8]: 17.6 µM
TGI [8]: 50.8 µM
GI50 [9]: 26.7 µM
TGI [9]: > 100 µM
GI50 [10]: 21.4 µM
TGI [10]: > 55 µM

Cc1cc(Cc2cc(C)cc(C(C)(C)C)c2O)c(O)c(C(C)(C)C)c1
GI50 [1]: 11 µM
TGI [1]: 23 µM
GI50 [2]: 3.13 µM
TGI [2]: 11.7 µM
GI50 [3]: 10.5 µM
TGI [3]: > 100 µM
GI50 [4]: 3.95 µM
TGI [4]: 19.8 µM
GI50 [5]: 3.79 µM
TGI [5]: 13.6 µM
GI50 [6]: 7.55 µM
TGI [6]: 20.2 µM
GI50 [7]: 5.3 µM
TGI [7]: 20 µM
GI50 [8]: 11.9 µM
TGI [8]: 24.1 µM
GI50 [9]: 4.7 µM
TGI [9]: 16.8 µM
GI50 [10]: 5.74 µM
TGI [10]: 17.5 µM

Cc1c2c[n+](C(C)C)ccc2c(C)c2c1[nH]c1ccccc12
GI50 [1]: 1.53 µM
TGI [1]: > 100 µM
GI50 [2]: 4.36 µM
TGI [2]: 68.2 µM
GI50 [3]: 3.13 µM
TGI [3]: 19.2 µM
GI50 [4]: 2.72 µM
TGI [4]: 29 µM
GI50 [5]: 1.14 µM
TGI [5]: 10.9 µM
GI50 [6]: 9.17 µM
TGI [6]: 32.1 µM
GI50 [7]: 1.48 µM
TGI [7]: 6.9 µM
GI50 [8]: 0.32 µM
TGI [8]: 11.8 µM
GI50 [9]: 1.48 µM
TGI [9]: 6.64 µM
GI50 [10]: 0.456 µM
TGI [10]: 15.2 µM

Cc1cc(Nc2ncnc3ccc(NC4=NC(C)(C)CO4)cc23)ccc1Oc1ccn2ncnc2c1
GI50 [1]: 20.1 µM and > 10 µM
TGI [1]: > 81.5 µM
GI50 [2]: 21.1 µM and > 10 µM
TGI [2]: > 80.1 µM
GI50 [3]: 21 µM and > 10 µM
TGI [3]: 46.1 µM and > 10 µM
GI50 [4]: 17.1 µM and > 10 µM
TGI [4]: > 100 µM
GI50 [5]: 15.6 µM and > 10 µM
TGI [5]: 32.1 µM and > 10 µM
GI50 [6]: 13.4 µM and > 10 µM
TGI [6]: 31.3 µM and > 10 µM
GI50 [7]: 14.7 µM and > 10 µM
TGI [7]: 35.7 µM and > 10 µM
GI50 [8]: 11 µM and > 10 µM
TGI [8]: 65.5 µM and > 10 µM
GI50 [9]: 1.33 µM and 1.75 µM
TGI [9]: 12.8 µM and > 10 µM
GI50 [10]: 13.4 µM and > 10 µM
TGI [10]: 35.7 µM and > 10 µM

COc1ccc(Cl)cc1NC(=O)C(Br)C(Br)C(=O)O (stereo not given)
GI50 [1]: 21.7 µM
TGI [1]: 47.7 µM
GI50 [2]: 3.09 µM
TGI [2]: 9.49 µM
GI50 [3]: 5.61 µM
TGI [3]: > 100 µM
GI50 [4]: 1.46 µM
TGI [4]: > 100 µM
GI50 [5]: 16.3 µM
TGI [5]: 39.2 µM
GI50 [6]: 1.02 µM
TGI [6]: 2.52 µM
GI50 [7]: 9.88 µM
TGI [7]: 28.8 µM
GI50 [8]: 4.02 µM
TGI [8]: 18.4 µM
GI50 [9]: 3.27 µM
TGI [9]: 14.3 µM
GI50 [10]: 6.62 µM
TGI [10]: 20.9 µM

O=C(O)c1ccc(N/C=C2\C(=O)c3ccccc3OC2O)cc1O (stereo not given)
GI50 [1]: 28.5 µg/mL
TGI [1]: 52.3 µg/mL
GI50 [2]: 17.9 µg/mL
TGI [2]: 42.7 µg/mL
GI50 [3]: 9.35 µg/mL
TGI [3]: > 150 µg/mL
GI50 [4]: 16 µg/mL
TGI [4]: 87.2 µg/mL
GI50 [5]: 23.4 µg/mL
TGI [5]: 48.5 µg/mL
GI50 [6]: 22.5 µg/mL
TGI [6]: 73.3 µg/mL
GI50 [7]: 10 µg/mL
TGI [7]: 38.9 µg/mL
GI50 [8]: 20.2 µg/mL
TGI [8]: 58.8 µg/mL
GI50 [9]: 6.18 µg/mL
TGI [9]: 50.3 µg/mL
GI50 [10]: 17.2 µg/mL
TGI [10]: 45.1 µg/mL

CC(=O)O/N=C1/C(c2c(O)[nH]c3cc(Br)ccc23)=Nc2ccccc21
GI50 [1]: 1.92 µM
TGI [1]: 8.06 µM
GI50 [2]: 1.05 µM
TGI [2]: 2.67 µM
GI50 [3]: 1.88 µM
TGI [3]: 4.37 µM
GI50 [4]: 0.553 µM
TGI [4]: 3.3 µM
GI50 [5]: 0.398 µM
TGI [5]: 1.91 µM
GI50 [6]: 1.13 µM
TGI [6]: 2.4 µM
GI50 [7]: 3.48 µM
TGI [7]: 8.42 µM
GI50 [8]: 0.873 µM
TGI [8]: 2.58 µM
GI50 [9]: 2.59 µM
TGI [9]: 7.82 µM
GI50 [10]: 1.72 µM
TGI [10]: 5.63 µM

COc1ccc2c(c1)C(c1ccccc1Cl)=Nc1c(n[nH]c1C)N2
GI50 [1]: > 18.6 µM
TGI [1]: > 25 µM
GI50 [2]: 11.2 µM
TGI [2]: > 25 µM
GI50 [3]: > 25 µM
TGI [3]: > 25 µM
GI50 [4]: > 25 µM
TGI [4]: > 25 µM
GI50 [5]: 0.995 µM
TGI [5]: > 25 µM
GI50 [6]: 14.7 µM
TGI [6]: > 25 µM
GI50 [7]: > 25 µM
TGI [7]: > 25 µM
GI50 [8]: > 20.3 µM
TGI [8]: > 25 µM
GI50 [9]: > 17.6 µM
TGI [9]: > 25 µM
GI50 [10]: 5.74 µM
TGI [10]: > 25 µM

Cc1cc(C)c(O)c(CN(C)Cc2cc(Cl)cc(Cl)c2O)c1
GI50 [1]: 9.38 µM
TGI [1]: 28.6 µM
GI50 [2]: 3.23 µM
TGI [2]: 10.8 µM
GI50 [3]: 4 µM
TGI [3]: 33 µM
GI50 [4]: 3.54 µM
TGI [4]: > 100 µM
GI50 [5]: 5.31 µM
TGI [5]: 17.7 µM
GI50 [6]: 4.06 µM
TGI [6]: 17.1 µM
GI50 [7]: 6.13 µM
TGI [7]: 20.6 µM
GI50 [8]: 4.81 µM
TGI [8]: 20.4 µM
GI50 [9]: 4.07 µM
TGI [9]: 15.2 µM
GI50 [10]: 4.01 µM
TGI [10]: 17.1 µM
